According to patent US20130331378A1, “PYRAZOLOPYRIDINE DERIVATIVE OR PHARMACOLOGICALLY ACCEPTABLE SALT THEREOF” (KISSEI PHARMACEUTICAL CO., LTD., priority 2011, published 2013):

Biological target: T1, rat EP1 receptor (Rattus norvegicus, UniProt P70597)
T1 construct: expressed in transfected cells
T1 sequence (P70597 1-405): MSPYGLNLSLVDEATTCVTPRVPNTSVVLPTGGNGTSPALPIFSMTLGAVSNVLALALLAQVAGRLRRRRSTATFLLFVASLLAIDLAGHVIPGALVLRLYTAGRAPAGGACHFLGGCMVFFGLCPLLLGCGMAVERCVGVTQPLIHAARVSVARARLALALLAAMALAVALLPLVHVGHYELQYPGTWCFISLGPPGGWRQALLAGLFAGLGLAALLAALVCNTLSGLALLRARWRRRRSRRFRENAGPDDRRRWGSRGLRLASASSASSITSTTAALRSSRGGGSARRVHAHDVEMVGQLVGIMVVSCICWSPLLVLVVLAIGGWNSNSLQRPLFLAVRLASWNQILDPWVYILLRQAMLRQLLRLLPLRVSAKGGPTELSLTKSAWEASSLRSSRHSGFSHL
Assay: Test for confirming EP1 receptor antagonistic effect: suppression of prostaglandin E2-induced rise in intracellular calcium concentration
Type: cell-based
Conditions: rat EP1 receptor-expressing COS-1 cells; prostaglandin E2 10 nM; Fluo 4-AM fluorescent signal; test compound 0.1 nM to 10 μM
Protocol: (1) Preparation of Rat EP1 Expression Vector
The first PCR was performed with Rat Kidney BD Marathon-Ready cDNA (Nippon Becton Dickinson Co., Ltd.) as a template using a forward primer represented by SEQ ID NO: 1 and a reverse primer represented by SEQ ID NO: 2 and using KOD-Plus-Ver 2.0 (Toyobo Co., Ltd.). The second PCR was further performed in a similar manner with this amplification product as a template using a forward primer represented by SEQ ID NO: 3 and a reverse primer represented by SEQ ID NO: 4. The amplification product obtained by the second PCR was incorporated into a vector (pcDNA3.1 D/V5-His-TOPO (registered trademark), Invitrogen Corporation). This vector with the incorporated amplification product was introduced to E. coli (One Shot TOP10 Competent Cell, Invitrogen Corporation) by a conventional method to perform transformation. This transformed E. coli was cultured for 1 day in an LB agar medium. After the culture, colonies were selected and cultured in an LB liquid medium containing 50 μg/mL of ampicillin. After the culture, the vector was purified using QIAprep Spin Miniprep Kit (Qiagen Corporation). The base sequence (SEQ ID NO: 5) of the inserted site in this vector was compared with the base sequence (Ptger1) of rat EP1 registered under Accession No. NM_013100 in a heretofore known database (NCBI) and consequently was completely identical except for 1 base. Moreover, an amino acid sequence translated from this base sequence was completely identical to the amino acid sequence of the rat EP1 receptor registered under Accession No. NP_037232 in NCBI. Thus, it was confirmed that the cloned gene sequence was the base sequence of the rat EP1 receptor and the obtained amino acid sequence was the rat EP1 receptor. The pcDNA3.1 D/V5-His-TOPO (registered trademark) in which the nucleic acid represented by SEQ ID NO: 5 was inserted was used as a rat EP1 expression vector.
(2) Preparation of Rat EP1 Receptor-Expressing Cell
COS-1 cells (Dainippon Sumitomo Pharma Co., Ltd.) were cultured at 37° C. in an incubator under 5% CO2 gas conditions using a D-MEM liquid medium (containing high glucose and L-glutamine, Invitrogen Corporation) supplemented with a penicillin-streptomycin solution (Invitrogen Corporation, final concentration: 100 U/mL as benzylpenicillin; 100 μg/mL as streptomycin) as antibiotics, MEM non-essential amino acids (Invitrogen Corporation, final concentration: 0.1 mM), and fetal bovine serum (Moregate Biotech, final concentration: 10%), until reaching confluence.
The cells that reached confluence were dissociated with 0.05% trypsin/0.53 mM EDTA.4Na (Invitrogen Corporation) and resuspended in the liquid medium. The resuspended cells were diluted with the liquid medium so that the spread ratio became 1:4 to 1:8, and were cultured.
The cells that reached confluence were dissociated with 0.05% trypsin/0.53 mM EDTA.4Na and resuspended in a D-MEM liquid medium (containing high glucose and L-glutamine, Invitrogen Corporation) supplemented with MEM non-essential amino acids (final concentration: 0.1 mM) and fetal bovine serum (final concentration: 10%). This resuspended cell suspension was prepared with a liquid medium so as to become the number of cells 5×10^4 cells/100 μL of the liquid medium/well in each well of a poly-D-lysine-coated 96-well microplate (BD BioCoat (registered trademark), Nippon Becton Dickinson Co., Ltd.), and this cell preparation was dispensed at 100 μL to each well and seeded. After the seeding, the cells were cultured at 37° C. in an incubator under 5% CO2 gas conditions. The introduction of the rat EP1 expression vector was performed by procedures shown below at the point in time when the cells for introduction of this rat EP1 expression vector adhered (approximately 2 hours after the seeding).
Lipofectamine 2000 (Invitrogen Corporation) was used for the introduction of the rat EP1 expression vector. […]

| Compound | IC50 [nM] |
| --- | --- |
| O=c1[nH]c(-c2cccc(Cc3c(-c4ccccc4)nn4cc(Cl)ccc34)n2)no1 [Example 25-1] | 46 |
| O=C(O)c1cccc(Cc2c(-c3cccc(F)c3)nn3cc(Cl)ccc23)n1 [Example 12-38, 6-[[6-Chloro-2-(3-fluorophenyl)pyrazolo[1,5-a]pyridin-3-yl]methyl]pyridine-2-carboxylic acid] | 39 |
| COc1ccc2c(Cc3cccc(-c4nnn[nH]4)n3)c(-c3ccccc3)nn2c1 [Example 2-1, 6-Methoxy-2-phenyl-3-[[6-(1H-tetrazol-5-yl)pyridin-2-yl]methyl]pyrazolo[1,5-a]pyridine] | 56 |
| O=C(O)c1cccc(Cc2c(-c3ccccc3)nn3cc(C(F)(F)F)ccc23)n1 [Example 3-22, 6-[[2-Phenyl-6-(trifluoromethyl)pyrazolo[1,5-a]pyridin-3-yl]methyl]pyridine-2-carboxylic acid] | 19 |
| COc1ccc2c(Cc3cccc(C(=O)O)n3)c(-c3ccccc3)nn2c1 [Example 3-5, 6-[(6-Methoxy-2-phenylpyrazolo[1,5-a]pyridin-3-yl)methyl]pyridine-2-carboxylic acid] | 6 |
| COc1ccc2c(Cc3ccc(C(=O)O)o3)c(-c3ccccc3)nn2c1 [Example 3-6, 5-[(6-Methoxy-2-phenylpyrazolo[1,5-a]pyridin-3-yl)methyl]furan-2-carboxylic acid] | 60 |
| COc1ccc2c(Cc3cccc(C(=O)O)n3)c(C(C)(C)C)nn2c1 [Example 3-15, 6-[(2-tert-Butyl-6-methoxypyrazolo[1,5-a]pyridin-3-yl)methyl]pyridine-2-carboxylic acid] | 39 |
| S=c1[nH]c(-c2cccc(Cc3c(-c4ccccc4)nn4cc(Cl)ccc34)n2)no1 [Example 26-1] | 70 |
| CC(C)(C)c1nn2cc(Cl)ccc2c1Cc1cccc(C(=O)O)n1 [Example 12-23, 6-[(2-tert-Butyl-6-chloropyrazolo[1,5-a]pyridin-3-yl)methyl]pyridine-2-carboxylic acid] | 48 |
| O=C(O)c1cccc(Cc2c(N3CCCCC3)nn3cc(Cl)ccc23)n1 [Example 12-26, 6-[[6-Chloro-2-(piperidin-1-yl)pyrazolo[1,5-a]pyridin-3-yl]methyl]pyridine-2-carboxylic acid] | 79 |
| COc1ccc2c(Cc3cccc(C(=O)O)n3)c(C3CCCC3)nn2c1 [Example 3-18, 6-[(2-Cyclopentyl-6-methoxypyrazolo[1,5-a]pyridin-3-yl)methyl]pyridine-2-carboxylic acid] | 170 |
| COc1ccc2c(Cc3cccc(C(=O)O)c3)c(-c3ccccc3)nn2c1 [Example 3-4, 3-[(6-Methoxy-2-phenylpyrazolo[1,5-a]pyridin-3-yl)methyl]benzoic acid] | 11 |
| O=C(O)c1csc(Cc2c(-c3ccccc3)nn3cc(Cl)ccc23)n1 [Example 12-7] | 110 |
| COc1ccc2c(Cc3cccc(C(=O)O)n3)c(-c3ccsc3)nn2c1 [Example 3-32, 6-[[6-Methoxy-2-(thiophen-3-yl)pyrazolo[1,5-a]pyridin-3-yl]methyl]pyridine-2-carboxylic acid] | 43 |
| O=C(O)c1cccc(Cc2c(-c3ccccc3)nn3cc(Cl)ccc23)c1 [Example 3-2, 3-[(6-Chloro-2-phenylpyrazolo[1,5-a]pyridin-3-yl)methyl]benzoic acid] | 29 |
| O=C(O)c1cccc(Cc2c(-c3ccccc3)nn3cc(Br)ccc23)n1 [Example 3-14, 6-[(6-Bromo-2-phenylpyrazolo[1,5-a]pyridin-3-yl)methyl]pyridine-2-carboxylic acid] | 11 |
| C=Cc1ccc2c(Cc3cccc(C(=O)O)n3)c(-c3ccccc3)nn2c1 [Example 3-11, 6-[(2-Phenyl-6-vinylpyrazolo[1,5-a]pyridin-3-yl)methyl]pyridine-2-carboxylic acid] | 21 |
| CC1(c2nn3cc(Cl)ccc3c2Cc2cccc(C(=O)O)n2)CC1 [Example 12-36, 6-[[6-Chloro-2-(1-methylcyclopropyl)pyrazolo[1,5-a]pyridin-3-yl]methyl]pyridine-2-carboxylic acid] | 160 |
| CS(=O)(=O)NC(=O)c1cccc(Cc2c(-c3ccccc3)nn3cc(Cl)ccc23)n1 [Example 23-1, 6-[(6-Chloro-2-phenylpyrazolo[1,5-a]pyridin-3-yl)methyl]-N-(methylsulfonyl)pyridine-2-carboxamide] | 62 |
| COc1ccc2c(Cc3cccc(C(=O)O)n3)c(-c3cccc(F)c3)nn2c1 [Example 12-53, 6-[[2-(3-Fluorophenyl)-6-methoxypyrazolo[1,5-a]pyridin-3-yl]methyl]pyridine-2-carboxylic acid] | 2.9 |
| CSc1ccc2c(Cc3cccc(C(=O)O)n3)c(-c3ccccc3)nn2c1 [Example 12-17, 6-[[6-(Methylthio)-2-phenylpyrazolo[1,5-a]pyridin-3-yl]methyl]pyridine-2-carboxylic acid] | 87 |
| Cc1ccc2c(Cc3cccc(C(=O)O)n3)c(-c3ccccc3)nn2c1 [Example 3-21, 6-[(6-Methyl-2-phenylpyrazolo[1,5-a]pyridin-3-yl)methyl]pyridine-2-carboxylic acid] | 19 |
| Clc1ccc2c(Cc3cccc(-c4nnn[nH]4)n3)c(-c3ccccc3)nn2c1 [Example 28-1, 6-Chloro-2-phenyl-3-[[6-(1H-tetrazol-5-yl)pyridin-2-yl]methyl]pyrazolo[1,5-a]pyridine] | 2.5 |
| COc1ccc2c(Cc3cccc(C(=O)O)n3)c(-c3ccc(F)cc3)nn2c1 [Example 3-24, 6-[[2-(4-Fluorophenyl)-6-methoxypyrazolo[1,5-a]pyridin-3-yl]methyl]pyridine-2-carboxylic acid] | 16 |
